pIC50: −log10 of the molar value. Counter-ions that a name gives are not always drawn.
molecular target: T1, cGMP-PDE prepared from porcine aorta (Sus scrofa, UniProt A0A287B475); assay: Inhibitory Activity Against cGMP-PDE Prepared from Porcine Aorta; format: biochemical; settings: CaM-independent cGMP-PDE fraction; 1 μM cGMP substrate; 1 mM EGTA; DMSO 4% or below
T1 construct: Porcine aorta was cut into small pieces; from tissue; host or cells: porcine aorta, 100,000 x g supernatant, DEAE-Toyopearl 650S fraction
Experimental: Inhibitory Activity Against cGMP-PDE Prepared from Porcine Aorta The enzymatic activity of cGMP-PDE prepared from porcine aorta was determined by the method of Thompson et al. This determination was conducted in the presence of 1 mM EGTA by the use of 1 μM cGMP as the substrate. The compound of the present invention was added to the reaction system in a state dissolved in DMSO to determine its inhibitory activity. The final DMSO concentration of the reaction system was adjusted to 4% or below. The above cGMP-PDE was prepared as follows: Porcine aorta was cut into small pieces, followed by the addition of 10 times (by volume) as much buffer A [comprising Tris/HCl (20 mM), magnesium acetate (2 mM), dithiothreitol (1 mM), EDTA (5 mM), aprotinin (1400TIU/l),leupeptin (10 mg/l), benzamidine (1 mM) and PMSF (0.2 mM) and having a pH of 7.5]. The resulting mixture was homogenated and centrifuged at 100,000×g for one hour. The obtained supernatant was adsorbed on a column packed with DEAE-Toyopearl 650S (Tosoh, Tokyo, Japan). The resulting column was washed with buffer B [comprising Tris/HCl (50 mM), EGTA (0.1 mM), magnesium acetate (2 mM), dithiothreitol (1 mM) and PMSF (0.2 mM) and having a pH of 7.5] and thereafter subjected to gradient elution with 0.05 to 0.4M sodium chloride to give a CaM-independent cGMP-PDE fraction. The compounds of the present invention were examined for cGMP-PDE inhibitory activity by the above method and the results are given in Table 1.

| SMILES | pIC50 |
| --- | --- |
| CCOC(=O)C1CCN(c2nc(NCc3ccc4c(c3)OCO4)c3cc(N)ccc3n2)CC1 [Example 12, 2-(4-Ethoxycarbonylpiperidino)-4-(3,4-methylenedioxybenzyl)amino-6-aminoquinazoline dihydrochloride] | 5.95 |
| Clc1nc(NCc2ccc3c(c2)OCO3)c2cc(N3CCCCC3)ccc2n1 [Example 4, 2-Chloro-4-(3,4-methylenedioxybenzyl)amino-6-piperidinoquinazoline] | 5.91 |
| Clc1nc(NCc2ccc3c(c2)OCO3)c2cc(-n3ccnc3Cl)ccc2n1 [Example 5, 2-Chloro-4-(3,4-methylenedioxybenzyl)amino-6-(2-chloroimidazol-1-yl)quinazoline] | 7.48 |
| Clc1nc(NCc2ccc3c(c2)OCO3)c2cc(-n3cccn3)ccc2n1 [Example 1, 2-Chloro-4-(3,4-methylenedioxybenzyl)amino-6-(pyrazol-1-yl)quinazoline] | 8.00 |
| CN(C)c1ccc2nc(Cl)nc(NCc3ccc4c(c3)OCO4)c2c1 [Example 2, 2-Chloro-4-(3,4-methylenedioxybenzyl)amino-6-dimethylaminoquinazoline] | 6.92 |
| COc1ccc(CNc2ncnc3ccc(-n4cnc(C)c4)cc23)cc1Cl [Example 17, 4-(3-Chloro-4-methoxybenzyl)amino-6-(4-methylimidazol-1-yl)quinazoline] | 6.39 |
| CN(C)c1ccc2nc(N3CCC(C(=O)O)CC3)nc(NCc3ccc4c(c3)OCO4)c2c1 [Example 10, 2-(4-Carboxypiperidino)-4-(3,4-methylenedioxybenzyl)amino-6-dimethylaminoquinazoline] | 7.73 |
| c1cn(-c2ccc3ncnc(NCc4ccc5c(c4)OCO5)c3c2)cn1 [Example 14, 4-(3,4-Methylenedioxybenzyl)amino-6-(imidazol-1-yl)quinazoline] | 6.14 |
| c1nc(NCc2ccc3c(c2)OCO3)c2cc(-n3cncn3)ccc2n1 [Example 15, 4-(3,4-Methylenedioxybenzyl)amino-6-(1,2,4-triazol-1-yl)quinazoline] | 6.44 |
| CCOC(=O)C1CCN(c2nc(NCc3ccc4c(c3)OCO4)c3cc(N(C)C)ccc3n2)CC1 [Example 7, 2-(4-Ethoxycarbonylpiperidino)-4-(3,4-methylenedioxybenzyl)amino-6-dimethylaminoquinazoline] | 6.83 |
| CCOC(=O)C1CCN(c2nc(NCc3ccc4c(c3)OCO4)c3cc(-n4cccn4)ccc3n2)CC1 [Example 6, 2-(4-Ethoxycarbonylpiperidino)-4-(3,4-methylenedioxybenzyl)amino-6-(pyrazol-1-yl)quinazoline hydrochloride] | 8.09 |

These reach a higher pIC50. Values come first.

| pIC50 | SMILES |
| --- | --- |
| 8.28 | O=[N+]([O-])c1ccc2nc(Cl)nc(NCc3ccc4c(c3)OCO4)c2c1 [Example 3, 2-Chloro-4-(3,4-methylenedioxybenzyl)amino-6-nitroquinazoline] |
| 8.46 | CCOC(=O)C1CCN(c2nc(NCc3ccc4c(c3)OCO4)c3cc([N+](=O)[O-])ccc3n2)CC1 [Example 8, 2-(4-Ethoxycarbonylpiperidino)-4-(3,4-methylenedioxybenzyl)amino-6-dimethylnitroquinazoline] |
| 9.12 | O=C(O)C1CCN(c2nc(NCc3ccc4c(c3)OCO4)c3cc([N+](=O)[O-])ccc3n2)CC1 [Example 11, 2-(4-Carboxypiperidino)-4-(3,4-methylenedioxybenzyl)amino-6-nitroquinazolin] |
| 8.83 | O=C(O)C1CCN(c2nc(NCc3ccc4c(c3)OCO4)c3cc(-n4cccn4)ccc3n2)CC1 [Example 9, 2-(4-Carboxypiperidino)-4-(3,4-methylenedioxybenzyl)amino-6-(pyrazol-1-yl)quinazoline] |
| 8.14 | O=C(O)C1CCN(c2nc(NCc3ccc4c(c3)OCO4)c3cc(-c4nnn[nH]4)ccc3n2)CC1 [Example 13] |

Reference: patent publication US5707998A, “Nitrogen-containing fused-heterocycle compounds” (Eisai Co., Ltd., priority 1993, dated 1998)
